This note sets out measurements from patent US20220175820A1 (PIERRE FABRE DERMO-COSMETIQUE, priority 2019, published 2022).

Holding throughout (assay type): cell-based
For assay [1], the system named is prostaglandin PG6KF1α production, HaCat line (human keratinocytes). The experiment in a line: PG6KF1α release by HaCat keratinocytes stimulated with calcium ionophore A23187 (ELISA). Conditions: indomethacin 0.1 μM, A23187 5 μM for 5 hours. The procedure:
The cell line used in this study is the HaCat line (human keratinocytes).
The cells are cultured in DMEM (Dulbecco's Modified Eagle Medium) supplemented with foetal calf serum in an environment at 37° C. and 5% CO2 on 24-well plates. They are then preincubated for 60 minutes, still at 37° C., with the products to be tested dissolved in water. A stimulant the arachidonic acid pathway is added for 5 hours. This is the stimulation phase; the stimulant is the calcium ionophore A23187 (solution in 0.01% DMSO) used at 5 μM. […] After 5 hours of stimulation, still in the same medium, the culture supernatant of each well is drawn off, centrifuged at 3000 RPM then stored at −20° C. The production of prostaglandin PG6KF1α in culture supernatant is measured with the Euromedex Elisa kit according to the supplier's instructions. Statistical analysis is performed by ANOVA followed by Dunnett's post-hoc test. Note that 3 independent experiments were conducted. The results for each product and for each dose are averaged from measurements performed on 3 wells. Thus, the control group (with no stimulant) makes it possible to quantify basal PG6KF1α production.

Assay [2] deals with SULT2B1: cholesterol sulfotransferase. The assay can be described thus: RT-qPCR gene expression in normal human keratinocytes: SULT2B1. Conditions: calcium chloride 1.5 mM, 48 h. On the procedure:
(§1) The effects of this compound were assessed via the RT-qPCR technique with the analysis of 12 target genes chosen for their importance in keratinocyte differentiation, antimicrobial defence and hydration. Calcium chloride (tested at 1.5 mM) is used as the reference compound (physiological agent inducing terminal epidermal differentiation). The cells are then collected for analysis of target expression (mRNA) by real-time PCR. Total RNAs were extracted with TriPure Isolation Reagent® according to the supplier's instructions (Roche Life Science, Meylan, France). They were assayed with the Bioanalyser 2100 (Agilent Technologies, Les Ulis, France). The mRNAs were reverse transcribed into complementary DNA with oligo(dT) and Transcriptor Reverse Transcriptase. PCR was performed in the LightCycler® System according to the supplier's instructions (Roche). The PCR mix used is SYBR green I. The results were analyzed with Microsoft Excel®. The relative quantity is calculated for each gene by normalizing with two reference genes, ribosomal protein L13A (RPL13A) and TATA box binding protein (TBP).

In another assay the test system is DEFB4A: β-defensin 2. The experiment in a line: RT-qPCR gene expression in normal human keratinocytes: DEFB4A. Conditions: calcium chloride 1.5 mM, 48 h. On the procedure: as §1
The test system of assay [3] is DEGS2: sphingolipid C4-hydroxylase/delta-4 desaturase. The assay can be described thus: RT-qPCR gene expression in normal human keratinocytes: DEGS2. Conditions: calcium chloride 1.5 mM, 48 h. The procedure: as §1
Another assay deals with CDSN : corneodesmosin. The experiment in a line: RT-qPCR gene expression in normal human keratinocytes: CDSN. Conditions: calcium chloride 1.5 mM, 48 h. On the procedure:
as §1

The subject of another assay is FLG: filaggrin. The assay can be described thus: RT-qPCR gene expression in normal human keratinocytes: FLG. Conditions: calcium chloride 1.5 mM, 48 h. On the procedure: as §1
For another assay, the system named is CASP14: caspase 14. The experiment in a line: RT-qPCR gene expression in normal human keratinocytes: CASP14. Conditions: calcium chloride 1.5 mM, 48 h. The procedure:
as §1

In another assay the test system is KLK7: type 7 kallikrein. The experiment in a line: RT-qPCR gene expression in normal human keratinocytes: KLK7. Conditions: calcium chloride 1.5 mM, 48 h. On the procedure:
as §1

For a further assay, the system named is TGM1: transglutaminase 1. The assay can be described thus: RT-qPCR gene expression in normal human keratinocytes: TGM1. Conditions: calcium chloride 1.5 mM, 48 h. The procedure:
as §1

Assay [4] has as its system FABP5: epidermal fatty acid binding protein. The experiment in a line: RT-qPCR gene expression in normal human keratinocytes: FABP5. Conditions: calcium chloride 1.5 mM, 48 h. The procedure:
as §1

A further assay concerns CLDN4: claudin 4. The assay can be described thus: RT-qPCR gene expression in normal human keratinocytes: CLDN4. Conditions: calcium chloride 1.5 mM, 48 h. On the procedure: as §1

Take `COc1ccc2c(c1)c(CC(=O)O)c(C)n2C(=O)c1ccc(Cl)cc1` [Indo, indomethacin, reference compound]: in assay [1], the “PG6KF1α % Inh” value was 33% and the “PG6KF1α (pg/ml) Mean” value came to 839.9 pg/mL. Moreover, in assay [1] (listed as Indomethacin), the “PG6KF1α % Inh” value is given as “a third”.
`[Ca+2].[Cl-].[Cl-]` [Calcium chloride]: the “SULT2B1 Mean RQ (relative quantity)” value in [2] is recorded as 14.0. For the same compound, the “DEFB4A Mean RQ (relative quantity)” value with DEFB4A: β-defensin 2 is on record as 118.0. Also, the “DEGS2 Mean RQ (relative quantity)” value in [3] amounted to 3.0. The “CDSN Mean RQ (relative quantity)” value with CDSN : corneodesmosin was determined as 1.8. For the same compound, the “FLG Mean RQ (relative quantity)” value with FLG: filaggrin is on record as 4.5. Also, in the assay on CASP14: caspase 14, the “CASP14 Mean RQ (relative quantity)” value worked out at 1.6. Moreover, the “KLK7 Mean RQ (relative quantity)” value in the assay on KLK7: type 7 kallikrein is recorded as 11.3. In addition, in the assay on TGM1: transglutaminase 1, the “TGM1 Mean RQ (relative quantity)” value turned out to be 9.0. Also, the “FABP5 Mean RQ (relative quantity)” value in assay [4] is recorded as 6.9. For the same compound, in the assay with CLDN4: claudin 4, the “CLDN4 Mean RQ (relative quantity)” value stood at 2.5.
